Entries after “also recorded” stand apart in the source; their conditions may differ. Where two headings read alike, the source gives them in different places. Each block holds one molecule with its values, some of them ahead of it.
Key:
CSC population = conditions: fraction of original population remaining; cited from earlier work
[1] = test system: L3.6pl pancreatic cancer cells; test: Tumorigenicity after in vitro pre-treatment and orthotopic implantation; assay type: in vivo, mice
Description: After 96 hours of pretreatment, the remaining viable cells were orthotopically implanted into the pancreas of mice, which received no further treatment in vivo.
Cultivated pancreatic cancer cells were exposed to either Gemcitabine alone representing clinical standard therapy, SB431542 alone, or a combination of Gemcitabine and SB431542 in the above given respective concentrations. After 96 hours of pretreatment, the remaining viable cells were orthotopically implanted into the pancreas of mice, which received no further treatment in vivo.
A prerequisite of CSC is their ability to form tumours in secondary recipients. Due to the limited number of cancer (stem) cells that can be obtained from primary tissues, it is virtually impossible to reproducibly perform in vivo treatment experiments with fresh patient-derived cells. Therefore, all subsequent in vivo experiments were performed with the established L3.6pl pancreatic cancer cells. The design of the experiment is illustrated in FIG. 20A. […] After 4 days of pretreatment, the surviving cells were orthotopically implanted into the pancreas, which received no further in vivo treatment. Tumorigenicity was first determined by PET scans on day 30 (FIGS. 20B, 20C; left panel) and by final macroscopic and microscopic histological evaluation on day 35 (FIGS. 20B, 20C; right panel).
Animals and Orthotopic Implantation of Tumour Cells. Single-cell suspensions were orthotopically implanted into the pancreas of female NMRI nu/nu mice (Janvier, Le Genest-Saint-Isle, France) (Hermann et al., 2007, supra). Size and weight of the pancreatic tumours were monitored.
(§1) In vitro treatment of pancreatic cancer cells. […] For the evaluation of the in vivo tumorigenicity, […] L3.6pl cells were pretreated with the respective regimen and the remaining viable cells were orthotopically implanted into the pancreas of nude mice and evaluated on day 35. For the systemic infusion assay, cells were labelled with the Qtracker 800 labelling kit (Invitrogen) according to the manufacturer's instructions, and 5×10^5 cells were injected intravenously into mice. After 4 weeks, explanted lungs were scanned for metastases with a near-infrared imaging platform (Odyssey, Li-cor, Lincoln, Nebr.). Positive signals were verified by histology (H&E staining).

[2] = test system: CD133+ cancer stem cells in tumour cell lines; test: CD133 content by flow cytometry in tumour cell lines after 48 hours of in-vitro treatment; assay type: cell-based, human
Description: As a first step the content of cancer stem cells (measured as “CD 133-content”) in the whole population of tumour cells was measured by flow cytometry (FIGS. 1A-1C).
As a first step the content of cancer stem cells (measured as “CD 133-content”) within the entire tumour cell population was measured by flow cytometry (FIGS. 10A-10C).

pancreatic CSC spheres = test: CSC-enriched tumour sphere assay; assay type: cell-based, human; conditions: ultra low adhesion 6-well plates
Description: First, pancreatic CSC were clonally expanded as CSC-enriched spheres (FIGS. 18C1-18C5). Floating spheres were treated in ultra low adhesion 6-well plates. After completion of the treatment, five randomly selected high-power fields were analyzed.
(§2) Human pancreatic cancer cell line. The highly metastatic human pancreatic cell line L3.6pl was maintained in DMEM medium (Invitrogen, Karlsruhe, Germany) with 12% Fetal Calf Serum (Biochrom, Berlin, Germany), Glutamax (Invitrogen), non-essential amino acids, and vitamins (all from PAN, Aidenbach, Germany) (Hermann et al., 2007, supra). Cultures were kept no longer than 4 weeks after recovery from frozen stocks. CSC spheres were cultured in DMEM-F12 supplemented with B27 (Gibco, Karlsruhe, Germany) and FGF-2 (PeproTech EC, London, United Kingdom) (Hermann et al., 2007, supra).

[3] = test system: CD133+ pancreatic cancer stem cells (L3.6pl cells); test: CD133 content by flow cytometry in L3.6pl pancreatic cancer cells; assay type: cell-based, human; conditions: for CD133 content of L3.6pl cells: Example 4.2, inhibitor alone or with Gemcitabine
Description: In this experiment, potentially effective substances for the targeted elimination of CD133^+ pancreatic cancer stem cells (CSC) were screened by means of flow cytometry following 48 hours of therapy. […] As a Gemcitabine concentration of 100 ng/ml was the lowest concentration capable of achieving a strong relative enrichment for CD133^+ cells through depletion of CD133^− cells, this concentration was chosen for subsequent experiments.
as §2
Cytometry. Pancreatic CSC were identified by CD133/1-APC or CD133-PE (Miltenyi, Bergisch-Gladbach, Germany) (Hermann et al., 2007, supra). Side population experiments were performed as described by Goodell et al. (1996) (see Goodell et al., 1996, J Exp Med 183, 1797-1806) and cells were identified by exclusion of the vital dye Hoechst 33342. To detect activation of the PI3K/Akt/mTOR pathway by means of the phosphorylation status of the s6 ribosomal protein (s6rp), cells cultivated with standard medium were stained with a rabbit anti-phospho-S6 ribosomal protein antibody (Cell Signalling Technology, Danvers, Mass.).
as §1
(§3) Using SB431542, a specific inhibitor of the receptors for Nodal and Activin, ALK-4 and -7 respectively, it was investigated whether the content of the CD133(+) population is affected by inhibition of Activin/Nodal signaling. As mutations affecting the TGF-superfamily pathway are very common in pancreatic neoplasms, pancreatic cell lines harboring different mutations in this pathway were screened (Table 1).

BxPC3 cells = test: CD133 content by flow cytometry in BxPC3 cells; assay type: cell-based, human
Text: as §3, with “1). […] Without being bound thereto, this indicates a Nodal/[…] mediated pathway being independent from SMAD4 as an underlying mechanism.” for “1).”

Alk4/7 = test: Smad2 phosphorylation after recombinant Nodal; assay type: cell-based
[4] = test system: primary human pancreatic cancer cells; test: Sphere formation in primary human pancreatic cancer cells; assay type: cell-based
CD133-positive cells = test: Cell cycle / apoptosis of CD133-positive cells (BrDU flow kit); assay type: cell-based
Text: As the precise fate of CD133-positive cells during treatment with antagonists of Activin or Nodal was to be assessed, the cell cycle of these cells was investigated using a BrDU flow kit (see FIGS. 26A-26G).

MiaPaca cells = test: CD133 content by flow cytometry in MiaPaCa cells; assay type: cell-based, human
Text: as §3, with “1). […] Without being bound thereto, this indicates a Nodal/[…] mediated pathway being independent from SMAD4 as an underlying mechanism.” for “1).”

[5] = test system: primary human pancreatic cancer tissue; test: In vivo treatment of implanted patient pancreatic tumor tissue with gemcitabine plus SB431542; design: species or system mice; conditions: mouse, in vivo
Description: FIG. 33: In vivo treatment with the Alk4/7 inhibitor SB431542. This illustrates Nodal/Activin inhibition to eliminate primary human pancreatic CSC in vivo. Tumor tissue from patient with pancreatic cancer was implanted into immunocompromised mice. Treatment was started on day 7 after implantation. Mice were randomized to gemcitabine alone or gemcitabine plus SB431542. Tumor growth was assessed on day 28.

CD133 positive CSC = test: CD133 positive population after extracellular antagonists of Nodal and Activin A; assay type: cell-based
Text: Furthermore, cells in culture were subjected to extracellular antagonists of Nodal (Lefty) and Activin A (Follistatin) to see whether both components are functionally relevant for the maintenance of the CD133 positive CSC compartment.

[6] = test system: sphere derived cells (185s); test: Soft agar colony formation assay; assay type: cell-based; conditions: soft agar assay 14d
Text: FIGS. 31A-D: show a Gain of function by Nodal stimulation—Sphere derived cells (185s) bear a higher colony forming capacity as compared to adherent cells (185) as evidence for an enrichment in cancer stem cells (in a soft agar assay 14d).

[7] = 5 μM SB431542, 100 ng/ml Gemcitabine, ALK5 inhibitor SB-505124

Molecule: CC1=C2C[C@H]3[C@@H](CC=C4C[C@@H](O)CC[C@@]43C)[C@@H]2CC[C@]12O[C@@H]1C[C@H](C)CN[C@H]1[C@H]2C [Cyclopamine, 11-deoxojervine]
reduction of the original CSC population (aldehyde dehydrogenase marker) (CSC population): ⅓ | tumour take rate / tumorigenicity ([1]; 4 days of pretreatment, PET day 30, histology day 35): neither Cyclopamine nor Rapamycin monotherapy significantly affected tumour take rates | content of cancer stem cells (CD 133-content) ([2]; 100 ng/ml Gemcitabine, 100 ng/ml Rapamycin, 10 μM Cyclopamine, separately or triple combination): None of the investigated molecules (Gemcitabine, Rapamycin and Cyclopamine) was capable of significantly reducing | tumour spheres / CD133+ cells in CSC-enriched spheres (pancreatic CSC spheres): reduction of tumour spheres | CD133+ cell content ([3]; 48 hours of therapy, Gemcitabine 100 ng/ml): moderate, albeit significant decrease | CD133 content ([3]; inhibitor alone, CUR199691 10 μM): 55%

white blood cell counts (WBC) [5]: lack of change
Molecule: NC(=O)c1ccc(-c2nc(-c3ccc4c(c3)OCO4)c(-c3ccccn3)[nH]2)cc1 [SB431542]
tumorigenicity after in vitro pre-treatment ([1]; 96 hours pretreatment, 100 ng/ml Gemcitabine, 5 μM SB431542): close to no effect; also recorded: did not affect the tumorigenicity | content of cancer stem cells (CD 133-content) [2, 7]: significant reduction | CD133 content of BxPC3 cells (BxPC3 cells): no response | phosphorylation of Smad2 (pSmad2) (Alk4/7): abrogated this increase in pSmad2 | cell viability (dapi staining) [4]: did not affect cell viability | sphere formation [4]: in a dose-dependent manner reduced sphere formation | induction of apoptosis in CD133-positive cells (CD133-positive cells): modest induction of apoptosis | CD133(+) sub-population of MiaPaca cells (MiaPaca cells): decrease | body weight [5]: lack of change | severe side effects [5]: did not result in severe side effects | CD133 content 24 hours after withdrawal of therapy ([3]; 24 hours after withdrawal): already started to approach control level | CD133 content 48 h after withdrawal of therapy ([3]; 48 h after withdrawal): enrichment for CD133 compared to base level | CD133 content of L3.6pl cells [3]: decrease; also recorded: drastically reduced

Molecule: Cc1cccc(-c2[nH]c(C(C)(C)C)nc2-c2ccc3c(c2)OCO3)n1 [SB505124]
content of cancer stem cells (CD 133-content) [2, 7]: did not lead to significant reduction | CD133 content of L3.6pl cells [3]: neither alone nor in combination with Gemcitabine an effect

B1: Folistatin: single chain glycoprotein, inhibitor of Activin signaling (protein, UniProt P19883 30-344, looked up)
Follistatin: GNCWLRQAKNGRCQVLYKTELSKEECCSTGRLSTSWTEEDVNDNTLFKWMIFNGGAPNCIPCKETCENVDCGPGKKCRMNKKNKPRCVCAPDCSNITWKGPVCGLDGKTYRNECALLKARCKEQPELEVQYQGRCKKTCRDVFCPGSSTCVVDQTNNAYCVTCNRICPEPASSEQYLCGNDGVTYSSACHLRKATCLLGRSIGLAYEGKCIKAKSCEDIQCTGGKKCLWDFKVGRGRCSLCDELCPDSKSDEPVCASDNATYASECAMKEAACSSGVLLEVKHSGSCNSISEDTEEEEEDEDQDYSFPISSILEW
CD133 positive CSC population (CD133 positive CSC): reduction of CD133 positive CSC that was similar to the reduction seen for Lefty | CD133 positive CSC population (CD133 positive CSC; listed as folistatin): reduction of CD133 positive cancer stem cells

B2: recombinant Nodal: recombinant Nodal, member of the TGF-β superfamily, used as stimulus (protein, UniProt Q96S42 238-347, looked up)
Nodal homolog: HHLPDRSQLCRKVKFQVDFNLIGWGSWIIYPKQYNAYRCEGECPNPVGEEFHPTNHAYIQSLLKRYQPHRVPSTCCAPVKTKPLSMLYVDNGRVLLDHHKDMIVEECGCL
phosphorylation of Smad2 (pSmad2) (Alk4/7): increased phosphorylation of downstream Smad2 | colony formation [6]: further increase in colony formation

Reference: patent US20110151020A1, “ACTIVE SUBSTANCE COMBINATION WITH GEMCITABINE FOR THE TREATMENT OF EPITHELIAL CANCER” (priority 2008, published 2011)
